Measured values taken from US20120021967A1, “SYNTHETIC ANTIBODIES” (Arizona Board of Regents, A Body Corporate of the State Of …, priority 2008, published 2012).
One block for each compound: values may come before it. Where a SMILES comes first, the peptide text is derived from it. Where no end group is shown, it is not given here.

Tests used:
TNF-α = TNF-α (Homo sapiens, UniProt P01375); assay: SPR (Biacore A100) of TNF1 lead and mutant peptides on captured TNF-α; assay type: binding; conditions: for koff: kinetic fits of sensorgrams, read-out: off-rate koff
TNF-α, sequence (P01375 77-233 limits assumed, species assumed): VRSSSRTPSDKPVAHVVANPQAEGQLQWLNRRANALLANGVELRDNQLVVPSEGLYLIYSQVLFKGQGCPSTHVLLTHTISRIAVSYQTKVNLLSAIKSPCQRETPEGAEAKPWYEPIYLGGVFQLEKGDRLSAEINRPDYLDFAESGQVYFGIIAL
Excerpt: Scanning Mutagenesis of the TNF1 Lead Peptide. After lead identification, the next step in the AMPLI algorithm is characterization of point mutations in the lead heteropolymer. Using short peptides makes it chemically feasible to synthesize a significant fraction of the point-mutant space, which can then be screened for enhanced point mutations. For example, all possible point mutations in the 17 randomized positions using all 20 natural amino acids could be synthesized and screened within a single 384-well plate (323 total point-mutants). However, libraries containing all 20 natural amino acids are not required for affinity optimization of protein-protein interactions. A library of TNF1 point-mutants containing all substitutions of the amino acid set {Y, A, D, S, K, N, V, W} in each of the 17 randomized positions (132 unique point-mutants) was synthesized. Tyrosine (Y), alanine (A), aspartic acid (D) and serine (S) were selected because of their effectiveness in producing high affinity interactions when substituted into the complementary-determining regions (CDRs) of synthetic antibodies (Felouse, Proceedings of the National Academy of Sciences 101(34):12467, 2004), lysine (K) was selected to balance the charge in the substitution set, asparagine (N), valine (V) and tryptophan (W) were selected to span the hydropathicity range (Kyte J & Doolittle R F, Journal of Molecular Biology 157(1):105-132, 1982). […] This concentration was used to increase the high-end dynamic range for quantifying enhancing point mutations at the expense of low-end dynamic range for quantifying detrimental point mutations.
Point-mutant libraries were prepared in 96-well stock plates From the stock plate, peptides were diluted to 50 μM concentration in Biacore HBS-EP buffer (GE Healthcare, Piscataway, N.J.) containing 1 mg/ml carboxymethyl-dextran (Sigma-Aldrich, St. Louis, Mo.) to reduce non-specific binding to the CM-5 SPR chip surface. […] Spot 3 contained only immobilized neutravidin and served as a reference spot.
Using the prepared 96-well plates and Biacore A100 SPR instrument, four peptides were flowed separately, in parallel, through the four flow cells over all 4 TNF-α spots and the neutravidin reference spot, with a 60 second association phase and 300 second dissociation phase. SPR sensorgrams were recorded for each peptide response with all 4 TNF-α spots and the neutravidin reference spot across the four flow cells on the SPR chip. […]
Purified point-mutant affinities were measured on the Biacore A100 using SPR equilibrium binding response across a series of peptide concentrations on an SPR chip with TNF-α captured as described above. […]

transferrin [1] = target: T1, transferrin (Homo sapiens, UniProt P02787); assay: SPR (Biacore T100) steady state affinity of mRNA display clones on immobilized transferrin; assay type: binding; conditions: for Kd: steady state affinity model, 32 to 0.0625 μM
T1 sequence (P02787 20-698): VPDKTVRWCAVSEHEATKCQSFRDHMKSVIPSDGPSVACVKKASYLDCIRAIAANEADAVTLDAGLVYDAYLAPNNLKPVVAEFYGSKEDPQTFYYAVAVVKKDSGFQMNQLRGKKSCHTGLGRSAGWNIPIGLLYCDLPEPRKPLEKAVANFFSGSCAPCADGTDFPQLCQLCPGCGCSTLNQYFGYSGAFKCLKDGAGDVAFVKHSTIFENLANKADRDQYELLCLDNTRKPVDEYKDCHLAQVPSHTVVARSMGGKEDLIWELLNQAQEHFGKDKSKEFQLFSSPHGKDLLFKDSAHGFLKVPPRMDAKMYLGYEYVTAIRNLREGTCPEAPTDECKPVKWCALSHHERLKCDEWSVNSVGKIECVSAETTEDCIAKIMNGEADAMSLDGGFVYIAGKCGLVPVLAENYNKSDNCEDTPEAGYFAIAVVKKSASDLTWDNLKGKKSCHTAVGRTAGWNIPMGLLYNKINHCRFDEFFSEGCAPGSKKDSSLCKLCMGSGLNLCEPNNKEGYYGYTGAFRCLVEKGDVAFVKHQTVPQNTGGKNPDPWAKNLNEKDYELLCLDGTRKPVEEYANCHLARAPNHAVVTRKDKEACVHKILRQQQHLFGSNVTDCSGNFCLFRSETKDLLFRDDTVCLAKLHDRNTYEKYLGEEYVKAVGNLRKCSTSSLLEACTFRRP
Protocol: Five clones (see Table 15) were selected, synthesized and purified by HPLC for characterization by surface plasmon resonance (SPR) (T100 instrument from Biacore). Transferrin was immobilized using standard NHS/EDC immobilization chemistry according to the methods described in Frostell-Karlsson, A., Remaeus, A., Andersson, K., Borg, P., Hamalainen, M., and Karlsson, R. (2000) J. Med. Chem. 43, resulting in 9758 RU of immobilized protein. HPLC purified peptides were injected over the surface and sensograms were recorded at multiple concentrations (32, 16, 8, 4, 2, 1, 0.5, 0.25, 0.125. and 0.0625 μM). Affinity plots were generated for each peptide and fit using a steady state affinity model.

transferrin [2] = target: T1, transferrin; assay: SPR characterization of TRF26 lead and point-mutant peptides against transferrin; assay type: binding
Excerpt: In this example, a small library of ˜300 variant peptides was synthesized in 96-well format. […] The lead peptide (TRF26, see Table 6) was selected as a moderate-affinity binder of the target protein transferrin. The library of variant peptides contained all possible point mutations of the lead peptide using the following set of amino acids {M,A,V,P,L,I,G,W,Y,F,S,T,N,Q,K,R,H,D,E}.
Relative affinities/specificities of the lead peptide and point-mutants were characterized using SPR as follows:
Peptide sample preparation. Lyophilized peptides were individually diluted in 96-well plates to approximately equal concentration (1 mg/ml) in 1×PBST buffer pH 7.4. Peptide sample purity was determined by MALDI-MS analysis of the diluted peptide samples.
SPR gold substrate preparation. Gold substrates used for SPR analysis were first modified with a monolayer of cysteamine by immersing the substrate in a 10 mM cysteamine/EtOH solution for 1 hour, thereby exposing a layer of primary amines just above the gold surface. After addition of the monolayer, the gold substrates were rinsed extensively with EtOH then further modified by immersing in a solution of 2 mM Sulfo-SMCC/PBS pH 7.4 for 1 hour, thereby exposing a surface-bound maleimide which can be used to covalently couple peptides to the gold substrate via the C-terminal cysteine.
Peptide spotting on gold substrate. Diluted peptide samples were spotted on the modified gold substrate using a commercial robotic spotter in an array format. The array contained ˜440 peptide spots (including replicates and blank reference spots), each spot having ˜200 um diameter. Spotted substrates were kept in a humidity chamber overnight to ensure complete reaction between the surface exposed maleimide and the C-terminal cysteine in the peptides. After ˜12-hours, the substrates were washed with PBST buffer to remove excess peptide not bound to the gold substrate. Finally, unreacted maleimide groups were quenched using a 2 mM β-mercaptoethanol/PBST solution thereby presenting a hydrophilic surface in regions not containing peptide.
Determination of target affinity using SPR. Gold substrates containing arrays of peptide variants and the lead peptide were loaded into a FlexChip SPR (Biacore) instrument. To ensure binding specificity, three injections of 0.2% BSA sample were flowed across the array using the FlexChip fluidics. The array was then washed with a continuous 1 mL/min flow of PBST buffer until the sensorgram reached a stable baseline. After reaching a baseline, the array was washed 2 additional minutes using PBST, then a 10 μM Transferrin/PBST sample was injected and continuously recycled over the array surface for 8 minutes. After the recycle the array was washed […] with continuous 1 mL/min PBST flow for 10 minutes. Sensorgrams were continuously recorded during the 2 minute prewash (to ensure baseline stability), 8 minute Transferrin sample recycle and post sample recycle wash.
Quantification of relative target affinities. Sensorgram values were taken from the stability region, that is the region ˜10 seconds into the post sample recycle wash. Sensorgram values at this point should allow identification of peptides that have both high levels of target binding and off-rates slower than the lead peptide. […] Data processing included identification of the mutated position at a particular SPR array spot as well as signal normalization relative to the lead peptide (lead peptide=1), enhanced binders have positive values and reduced binders have negative values.
Two TRF26 point-mutants (P6Y, H12F) were selected for further affinity characterization. The P6Y and H12F point-mutants have dissociation constants of 8.6±1.6 μM and 9.8±1.6 μM respectively. […] A TRF26 double mutant sequence containing the P6Y+H12F mutations was synthesized and characterized.

transferrin [3] = target: T1, transferrin; assay: SPR analysis of peptide pairs for binding to distinct sites on immobilized transferrin
Excerpt: The transferrin target was immobilized on a Biacore T100 SPR chip, and candidate polypeptides were applied in 1:1 mixtures in pairs and response data obtained, in accordance with the methods described in Example 4 above. As illustrated in FIGS. 12A-D, upon flowing candidate polypeptides over the immobilized target, ideally one polypeptide applied alone would bind to a first binding site on the target and produce a first characteristic SPR response level (FIG. 12A), the other polypeptide would bind to a second, distinct binding site on the target, producing a second characteristic response level (FIG. 12B), and a mixture of the two polypeptides together (at the same concentrations as before) would produce a response level approximating the sum of the response levels produced by each polypeptide alone, as the polypeptides bind to distinct binding sites (FIG. 12C).

human α-thrombin = target: T2, human α-thrombin (Homo sapiens, UniProt P00734); assay: ELISA-type assay on thrombin-coated wells; assay type: binding; conditions: read-out: Dissociation constant estimated from ELISA-type assay
T2 construct: human α-thrombin
Protocol: Binding to thrombin was evaluated in an ELISA-type assay. Wells of a 96 well plate were coated with 100 μL of 30 μg/mL human α-thrombin and incubated at 4C overnight. The plate was washed twice with DDI H2O and passivated with 3% BSA in 1×PBS buffer for 1 hour. The plate was shaken out and 50 μL of varying concentrations of analyte (DNA tile synbody, DNA tile with each aptamer with the other not present, and each aptamer alone, respectively) were incubated at RT for 1 hour. DNA tiles were biotin-modified at the 5′ end of one of the distal DNA strands 346 (see FIG. 26(a)). The plate was rinsed 10 times in 1×PBS and 50 μL of 1:1000 dilution of streptavidin-HRP in 0.1% BSA in 1×PBS was pipetted and incubated for 1 hour at RT. The plate was again rinsed and 50 μL of TMB was added and incubated at RT for 15 minutes. 50 μL of 0.5M HCl was added and the plate was read immediately. Results are shown in FIG. 27 for the DNA tile synbody 350; the DNA tile with Apt1 but not Apt2 present 352; the DNA tile with Apt2 but not Apt1 present 356; Apt1 alone 354; and Apt2 alone 358. Dissociation constant values estimated from this assay were about 1 nM for the DNA tile synbody, about 10 nM for Apt1 alone, and more than 1 μM for Apt2 alone.

[4] = Table 13A, lead and point-mutants
[5] = observed, read-out: dissociation constant

koff (TNF-α): 0.2 ± 0.02 s⁻¹
Compound: FERSYLKMPWKFLQSRQGSC [TNF1-opt]

Kd (transferrin [1]): > 300 µM
Compound: CC(C)C[C@H](NC(=O)[C@H](CCCNC(=N)N)NC(=O)[C@@H]1CCCN1C(=O)[C@@H]1CCCN1C(=O)[C@H](CC(=O)O)NC(=O)[C@@H]1CCCN1C(=O)[C@H](C)NC(=O)[C@@H]1CCCN1C(=O)[C@H](CS)NC(=O)[C@H](Cc1c[nH]c2ccccc12)NC(=O)CNC(=O)[C@@H](NC(=O)[C@@H]1CCCN1)[C@@H](C)O)C(=O)N[C@@H](Cc1c[nH]cn1)C(=O)N1CCC[C@H]1C(=O)N[C@@H](CC(C)C)C(=O)N[C@@H](Cc1c[nH]cn1)C(=O)NCC(=O)N[C@@H](CO)C(=O)N[C@@H](CS)C(=O)O [TBPM003] (H-PTGWCPAPDPPRLHPLHGSC-OH)

Binding ΔG (TNF-α; [4]): -5.21 ± 0.07 kcal/mol
Kd (TNF-α; [4]): 160 ± 19 µM
koff (TNF-α): 1.6 ± 0.5 s⁻¹
Compound: FERDPLMMPWSFLQSRQGSC [TNF1]

Binding ΔG (transferrin [2]; Table 13C): -5.56 ± 0.10 kcal/mol
Kd (transferrin [2]; Table 13C, read-out: Kd): 85 ± 14 µM
binding sites on transferrin (pairs applied in 1:1 mixtures) (transferrin [3]): bind distinct sites on transferrin
Compound: AHKVVPQRQIRHAYNRYGSC [TRF26]

Binding ΔG (transferrin [2]; Table 13C): -6.93 ± 0.11 kcal/mol
Component Binding ΔG Contribution (transferrin [2]; Table 13C): -1.37 ± 0.15 kcal/mol
Kd Fold-Change Relative to Lead (transferrin [2]; Table 13C): 10 ± 2.5
Kd (transferrin [2]; [5]): 8.6 ± 1.6 µM
Compound: AHKVVYQRQIRHAYNRYGSC [P6Y]

Kd (transferrin [1]): > 300 µM
Compound: C[C@H](N)C(=O)N[C@H](C(=O)N[C@@H](CCCNC(=N)N)C(=O)N[C@@H](Cc1c[nH]c2ccccc12)C(=O)N[C@@H](CS)C(=O)N1CCC[C@H]1C(=O)N[C@@H](CO)C(=O)N[C@@H](C)C(=O)N[C@@H](CCCNC(=N)N)C(=O)N1CCC[C@H]1C(=O)N[C@@H](C)C(=O)N[C@H](C(=O)N1CCC[C@H]1C(=O)N[C@H](C(=O)N[C@H](C(=O)N[C@@H](C)C(=O)N[C@H](C(=O)NCC(=O)N[C@@H](CO)C(=O)N[C@@H](CS)C(=O)O)[C@@H](C)O)[C@@H](C)O)[C@@H](C)O)[C@@H](C)O)[C@@H](C)O [TBPM021] (H-ATRWCPSARPATPTTATGSC-OH)

affinity improvement in comparison to the original peptide TRF26 (transferrin [1]): more than 10 fold
Compound: AHKVVPQRQMRHAYSRYGSC [TBPM023]

Binding ΔG (transferrin [2]; Table 13C): -6.85 ± 0.10 kcal/mol
Component Binding ΔG Contribution (transferrin [2]; Table 13C): -1.29 ± 0.14 kcal/mol
Kd Fold-Change Relative to Lead (transferrin [2]; Table 13C): 8.8 ± 2.0
Kd (transferrin [2]; [5]): 9.8 ± 1.6 µM
Compound: AHKVVPQRQIRFAYNRYGSC [H12F]

Compound: 5′-GGTTGGTGTGGTTGG-3′ [Apt2 alone]
Kd (human α-thrombin): > 1 µM

Compound: 5′-AGTCCGTGGTAGGGCAGGTTGGGGTGACT-3 [Apt1 alone]
Kd (human α-thrombin): ~0.01 µM

Observed Binding ΔG (transferrin [2]; Table 13D): -8.68 ± 0.15 kcal/mol
Observed Kd Fold-Change Relative to Lead (transferrin [2]; Table 13D): 190 ± 57
Predicted Binding ΔG (transferrin [2]; Table 13D, energetic additivity): -8.22 ± 0.18 kcal/mol
Kd (transferrin [2]; [5]): 0.5 ± 0.1 µM
Compound: AHKVVYQRQIRFAYNRYGSC [P6Y + H12F]
